Laboratory results published in patent US11999732B2, “P2X3 receptor antagonists” (RECORDATI INDUSTRIA CHIMICA E FARMACEUTICA SPA, priority 2018, dated 2024).
Read-outs that look alike come from different tables or passages of the source. Values belong to the compound of their own block, whether it stands above or below them.

Target: T1, human P2X3 receptor (Homo sapiens, UniProt P56373)
T1 construct: expressed in transfected cells; host or cells: CHO-K1
T1 sequence (P56373 1-397): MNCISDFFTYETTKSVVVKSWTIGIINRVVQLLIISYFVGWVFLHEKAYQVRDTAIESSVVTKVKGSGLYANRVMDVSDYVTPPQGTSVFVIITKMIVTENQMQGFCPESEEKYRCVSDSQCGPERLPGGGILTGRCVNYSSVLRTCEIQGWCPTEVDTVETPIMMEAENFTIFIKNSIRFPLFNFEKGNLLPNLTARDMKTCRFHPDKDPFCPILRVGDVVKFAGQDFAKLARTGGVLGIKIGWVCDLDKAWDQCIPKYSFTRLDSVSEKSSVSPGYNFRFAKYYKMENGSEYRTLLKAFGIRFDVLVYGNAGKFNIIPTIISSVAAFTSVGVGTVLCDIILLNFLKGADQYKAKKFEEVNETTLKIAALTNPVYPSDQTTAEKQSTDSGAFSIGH
Experiment: Calcium luminescence (photoprotein) assay in CHO-K1 cells co-expressing human P2X3 receptor, α,β-Met-ATP stimulation, FLEXSTATION readout
Assay type: cell-based
Conditions: human P2X3 receptor antagonist activity, CHO-K1 cells, α,β-Met-ATP, read-out: h-P2X3 IC50
Method: The assay for the human purinergic P2X3 receptor has been adapted to the internal screening instrumentation using the FLEXSTATION as reader and a photoprotein as luminescent readout. The assay consists of CHO-K1 cells recombinantly co-expressing the human P2rx3 receptor and a Ca^2+ sensitive photoprotein. Cells are maintained in DMEM F-12 (1:1) mixture (LONZA cat. no BE04-687F/U1) supplemented with 9 mL of 100 mM Sodium Pyruvate (LONZA cat. no BE13-115E), 29 mL of 7.5% Sodium Bicarbonate (LONZA cat. no: BE17-613E), 5.5 mL of 1 M Hepes (LONZA cat. no BE17-737E), 5 mL of 100× Penicillin/Streptomycin (LONZA cat. no DE17-602E) and 50 mL of Fetal Bovine Serum (Sigma cat. no F7524), 1 mg/mL G418 (Sigma cat. no G8168) and 5 µg/ml puromycin (Sigma cat. no P9620). Standard propagation conditions consist of seeding in a P75 flask twice a week, recovering about 20×10^6 cells, corresponding to about 80% confluency. Cells were seeded into black-walled clear bottom 96 well plates at a density of 40000 cells/well in a Tyrode's buffer (Standard Tyrode's buffer: in house solution, 130 mM NaCl, 5 mM KCl, 2 mM CaCl2, 5 mM NaHCO3, 1 mM MgCl2, 20 mM HEPES, pH 7.4). After 24 h the culture medium was replaced with 200 μL/well of coelenterazine in Tyrode's buffer (Coelenterazine: from BIOSYNTH (cat. no C-7001). 10 mM stock solution was prepared in DMSO and glutathione and stored at −20° C.). The plates were incubated for 4 hours at 37° C., and injected with 10 μL/well of test compounds at 25× concentration in Tyrode's buffer. After 4 minutes a second injection of 50 μL/well of 5× α,β-Met-ATP in Tyrode's buffer (α,β-Met-ATP: from Tocris (cat. no 3209), was dissolved at 100 mM in water and stored in aliquots at −20° C.) was performed and the signal of the emitted luminescence was recorded by FLEXSTATION III (Molecular Devices).
The inhibition curves of the tested compounds at cloned P2X3 receptor were determined by nonlinear regression analysis using software Prism 4.0 (Graphpad, San Diego, Calif.). The IC50 values and pseudo-Hill slope coefficients were estimated by the program.

IC50 (Table 7): 0.153 µM
Compound: O=c1n(Cc2ccc(Cl)cc2)c2cc(N3CCOCC3)cnc2c2nnc(Cc3cccnc3)n12 [Example 100, 6-(4-chlorobenzyl)-8-(morpholin-4-y1)-3-(pyridin-3-ylmethyl)pyrido[2,3-e][1,2,4]triazolo[4,3-c]pyrimidin-5(6H)-one]

IC50 (Table 7): 0.332 µM
Compound: Cc1c(C(C)C)nc2c3ncc(N4CCOCC4)cc3n(Cc3ccc(Cl)cc3)c(=O)n12 [Example 90]

IC50 (Table 6): 0.178 µM
Compound: COc1cc(CN2C(=O)N3CC(C(C)C)N=C3c3ncc(N4CCOCC4)cc32)cc(OC)c1 (centres unmarked) [Example 4, 6-(3,5-dimethoxybenzyl)-8-(morpholin-4-yl)-2-(propan-2-yl)-2,6-dihydroimidazo[1,2-c]pyrido[2,3-e]pyrimidin-5(3H)-one]

IC50 (Table 8): 1.44 µM
Compound: CC(C)(C)c1nnc2c3ncc(Br)cc3c(Cc3ccc(Cl)cc3)nn12 [Example 112, 8-bromo-3-tert-butyl-6-(4-chlorobenzyl)pyrido[2,3-d][1,2,4]triazolo[4,3-b]pyridazine]

IC50 (Table 7): 0.734 µM
Compound: COc1ccc(Cn2c(=O)n3c(CC(C)C)nnc3c3ncc(N4CCOCC4)cc32)cc1 [Example 104, 6-(4-methoxybenzyl)-3-(2-methylpropyl)-8-(morpholin-4-yl)pyrido[2,3-e][1,2,4]triazolo[4,3-c]pyrimidin-5(6H)-one]

IC50 (Table 7): 0.139 µM
Compound: COc1cc(Cn2c(=O)n3c(C)c(C)nc3c3ncc(NCC4COC4)cc32)cc(OC)c1 [Example 70, 6-(3,5-dimethoxybenzyl)-2,3-dimethyl-8-{[(oxetan-3-yl)methyl]amino}imidazo[1,2-c]pyrido[2,3-e]pyrimidin-5(6H)-one]

IC50 (Table 6): 0.109 µM
Compound: CC(C)(C)C1C(=O)N=C2c3ncc(N4CCOCC4)cc3N(Cc3ccc(Cl)cc3)C(=O)N21 (centres unmarked) [Example 68, 3-tert-butyl-6-(4-chlorobenzyl)-8-(morpholin-4-yl)imidazo[1,2-c]pyrido[2,3-e]pyrimidine-2,5(3H,6H)-dione]

IC50 (Table 7): 0.203 µM
Compound: CCn1ccc(-c2nnc3c4ncc(N5CCOCC5)cc4n(Cc4ccc(Cl)cc4)c(=O)n23)n1 [Example 109, 6-(4-chlorobenzyl)-3-(1-ethyl-1h-pyrazol-3-yl)-8-(morpholin-4-yl)pyrido[2,3-e][1,2,4]triazolo[4,3-c]pyrimidin-5(6H)-one]

IC50 (Table 9): 1.78 µM
Compound: COc1cc(CN2C(=O)N3CC(C)CN=C3c3ncc(N4CCOCC4)cc32)cc(OC)c1 (centres unmarked) [Example 145, 5-(3,5-dimethoxybenzyl)-9-methyl-3-(morpholin-4-yl)-5,8,9,10-tetrahydro-6H-pyrido[2,3-e]pyrimido[1,2-c]pyrimidin-6-one]

IC50 (Table 9): 0.278 µM
Compound: CC(C)C1C(=O)N=C2c3ncc(N4CCOCC4)cc3N(Cc3ccc(Cl)cc3)C(=O)N21 (centres unmarked) [Example 163, 6-(4-chlorobenzyl)-8-(morpholin-4-yl)-3-(propan-2-yl)imidazo[1,2-c]pyrido[2,3-e]pyrimidine-2,5(3H,6H)-dione]

IC50 (Table 6): 2.28 µM
Compound: COCCC1CN=C2c3ncc(N4CCOCC4)cc3N(Cc3ccc(OC)cc3)C(=O)N21 (centres unmarked) [Example 66, 6-(4-methoxybenzyl)-3-(2-methoxyethyl)-8-(morpholin-4-yl)-2,6-dihydroimidazo[1,2-c]pyrido[2,3-e]pyrimidin-5(3H)-one]

IC50 (Table 6): 7.19 µM
Compound: COc1ccc(CN2C(=O)N3CC(C(C)C)N=C3c3ncc(N4CCC(N(C)C)CC4)cc32)cc1 (centres unmarked) [Example 21, 8-[4-(dimethylamino)piperidin-1-yl]-6-(4-methoxybenzyl)-2-(propan-2-yl)-2,6-dihydroimidazo[1,2-c]pyrido[2,3-e]pyrimidin-5(3H)-one]

IC50 (Table 6): 0.189 µM
Compound: COc1cc(CN2C(=O)N3CC(C(C)C)N=C3c3ncc(N4CCC(N)CC4)cc32)cc(OC)c1 (centres unmarked) [Example 42, 8-(4-aminopiperidin-1-yl)-6-(3,5-dimethoxybenzyl)-2-(propan-2-yl)-2,6-dihydroimidazo[1,2-c]pyrido[2,3-e]pyrimidin-5(3H)-one]

IC50 (Table 8): 0.217 µM
Compound: CC(C)Cc1nnc2c3ncc(N4CCOCC4)cc3c(Cc3ccc(Cl)cc3)nn12 [Example 133, 6-(4-chlorobenzyl)-3-(2-methylpropyl)-8-(morpholin-4-yl)pyrido[2,3-d][1,2,4]triazolo[4,3-b]pyridazine]

IC50 (Table 6): 0.515 µM
Compound: COc1ccc(CN2C(=O)N3C(=NCC3C3CCCCC3)c3ncc(N4CCOCC4)cc32)cc1 (centres unmarked) [Example 24, 3-cyclohexyl-6-(4-methoxybenzyl)-8-(morpholin-4-yl)-2,6-dihydroimidazo[1,2-c]pyrido[2,3-e]pyrimidin-5(3H)-one]

IC50 (Table 6): 0.504 µM
Compound: CCC1CN=C2c3ncc(N4CCOCC4)cc3N(Cc3cc(OC)cc(OC)c3)C(=O)N21 (centres unmarked) [Example 6, 6-(3,5-dimethoxybenzyl)-3-ethyl-8-(morpholin-4-yl)-2,6-dihydroimidazo[1,2-c]pyrido[2,3-e]pyrimidin-5(3H)-one]

IC50 (Table 7): 0.897 µM
Compound: COc1ccc(Cn2c(=O)n3c(COC4CCOCC4)nnc3c3ncc(N4CCOCC4)cc32)cc1 [Example 98, 6-(4-methoxybenzyl)-8-(morpholin-4-yl)-3-[(tetrahydro-2H-pyran-4-yloxy)methyl]pyrido[2,3-e][1,2,4]triazolo[4,3-c]pyrimidin-5(6H)-one]

IC50 (Table 8): 0.538 µM
Compound: COc1ccc(Cc2nn3c(CC4CCOCC4)nnc3c3ncc(N4CCOCC4)cc23)cc1 [Example 125, 6-(4-methoxybenzyl)-8-(morpholin-4-yl)-3-(tetrahydro-2H-pyran-4-ylmethyl)pyrido[2,3-d][1,2,4]triazolo[4,3-b]pyridazine]

IC50 (Table 9): 0.608 µM
Compound: COc1ccc(Cn2c(=O)n3nc(CC(C)C)nc3c3ncc(N4CCOCC4)cc32)cc1 [Example 156, 6-(4-methoxybenzyl)-2-(2-methylpropyl)-8-(morpholin-4-yl)pyrido[2,3-e][1,2,4]triazolo[1,5-c]pyrimidin-5(6H)-one]

IC50 (Table 7): 1.01 µM
Compound: COc1ccc(Cn2c(=O)n3c(C)c(C(C)C)nc3c3ncc(N4CC5(COC5)C4)cc32)cc1 [Example 93, 6-(4-methoxybenzyl)-3-methyl-8-(2-oxa-6-azaspiro[3.3]heptan-6-yl)-2-(propan-2-yl)imidazo[1,2-c]pyrido[2,3-e]pyrimidin-5(6H)-one]

IC50 (Table 8): 0.309 µM
Compound: CC(C)(C)c1nnc2c3ncc(N4CCC(O)CC4)cc3c(Cc3ccc(Cl)cc3)nn12 [Example 140, 1-[5-tert-butyl-8-(4-chlorobenzyl)-3,4,6,7,13-pentazatricyclo[7.4.0.02,6]trideca-1(9),2,4,7,10,12-hexaen-11-yl]piperidin-4-ol]

IC50 (Table 6): 3.32 µM
Compound: O=C1N(Cc2ccc(Cl)cc2)c2cc(N3CCOCC3)cnc2C2=NCC3(CCOCC3)N12 [Example 41, 6-(4-chlorobenzyl)-8-(morpholin-4-yl)-2,2′,3′,5′,6,6′-hexahydro-5h-spiro[imidazo[1,2-c]pyrido[2,3-e]pyrimidine-3,4′-pyran]-5-one]

IC50 (Table 6): 1.19 µM
Compound: COc1cc(CN2C(=O)N3C(=NCC3C)c3ncc(N4CCOCC4)cc32)cc(OC)c1 (centres unmarked) [Example 2]

IC50 (Table 6): 0.2 µM
Compound: O=C1N(Cc2ccc(Cl)cc2)c2cc(N3CCOCC3)cnc2C2=NCC(c3ccccc3)N12 (centres unmarked) [Example 45, 6-(4-chlorobenzyl)-8-(morpholin-4-y1)-3-phenyl-2,6-dihydroimidazo[1,2-c]pyrido[2,3-e]pyrimidin-5(3H)-one]

IC50 (Table 6): 1.7 µM
Compound: O=C(C1CN2C(=O)N(Cc3ccc(Cl)cc3)c3cc(N4CCOCC4)cnc3C2=N1)N1CCOCC1 (centres unmarked) [Example 54, 6-(4-chlorobenzyl)-8-(morpholin-4-yl)-2-(morpholin-4-ylcarbonyl)-2,6-dihydroimidazo[1,2-c]pyrido[2,3-e]pyrimidin-5(3H)-one]

IC50 (Table 6): 0.301 µM
Compound: COc1ccc(CN2C(=O)N3CC(C(C)C)N=C3c3ncc(N4CCOCC4)cc32)cc1 (centres unmarked) [Example 18, 6-(4-methoxybenzyl)-8-(morpholin-4-yl)-2-(propan-2-yl)-2,6-dihydroimidazo[1,2-c]pyrido[2,3-e]pyrimidin-5(3H)-one]
